Relative viability data for five cell lines are collected here from the supplement of paper PMC10307832.

Assay in all cases: relative viability (nuclei count vs DMSO), 5 days (fraction); higher = more cells survive
Compound in the assay “Zosuquidar + Alpelisib”: O[C@@H](COc1cccc2ncccc12)CN1CCN([C@@H]2c3ccccc3[C@@H]3[C@H](c4ccccc42)C3(F)F)CC1 [Zosuquidar] + Cc1nc(NC(=O)N2CCC[C@H]2C(N)=O)sc1-c1ccnc(C(C)(C)C(F)(F)F)c1 [Alpelisib] (partner 2 µM)
In short, it runs like this:
(§1)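 Nuclei were stained with Hoechst during a one-step fixation (final 0.05% Triton X-100, 1% formaldehyde, 1 ug/ml Hoechst) carried out 5 days after dosing, then counted on 4× images. The cells, lung cancer lines in 1536-well plates, had been dosed by pin tool the day after seeding with one drug alone or a fixed anchor-drug dose plus five library-drug doses (not always all listed) in √10 steps. Relative viability is the nuclei count in treated wells divided by that in vehicle wells, and each value is the median of duplicate plates.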

Compound in the assay “Cabozantinib + Alpelisib”: COc1cc2nccc(Oc3ccc(NC(=O)C4(C(=O)Nc5ccc(F)cc5)CC4)cc3)c2cc1OC [Cabozantinib] + Cc1nc(NC(=O)N2CCC[C@H]2C(N)=O)sc1-c1ccnc(C(C)(C)C(F)(F)F)c1 [Alpelisib] (partner 2 µM)
The method in brief: as §1

Compound in the assay “Kobe2602 + Alpelisib”: C1=CC(=CC=C1NC(=S)NNC2=C(C=C(C=C2[N+](=O)[O-])C(F)(F)F)[N+](=O)[O-])F [Kobe2602] + Cc1nc(NC(=O)N2CCC[C@H]2C(N)=O)sc1-c1ccnc(C(C)(C)C(F)(F)F)c1 [Alpelisib] (partner 2 µM)
The method in brief:
as §1

Compound in assay [1]: COc1cc2nccc(Oc3ccc(NC(=O)C4(C(=O)Nc5ccc(F)cc5)CC4)cc3)c2cc1OC [Cabozantinib] + C[C@@H](Oc1cc(-c2cnn(C3CCNCC3)c2)cnc1N)c1c(Cl)ccc(F)c1Cl [Crizotinib] (partner 1 µM)
The method in brief: as §1

Turning to NCI-H2347, the relative viability was 1.1 with Zosuquidar + Alpelisib (first compound 0.01 µM); 0.991 with Zosuquidar + Alpelisib (first compound 0.03162 µM); 0.833 with Zosuquidar + Alpelisib (first compound 0.1 µM); 1.16 in the assay with Zosuquidar + Alpelisib (first compound 0.3162 µM); 0.984 with Zosuquidar + Alpelisib (first compound 1 µM); 1.2 with Cabozantinib + Alpelisib (first compound 0.02 µM). Besides, the relative viability stood at 1.15 in the assay with Cabozantinib + Alpelisib (first compound 0.06325 µM); 1.01 with Cabozantinib + Alpelisib (first compound 0.2 µM); 0.985 with Cabozantinib + Alpelisib (first compound 0.6325 µM); 0.668 in the assay with Cabozantinib + Alpelisib (first compound 2 µM); 0.972 in the assay with Kobe2602 + Alpelisib (first compound 0.2 µM); 1.01 with Kobe2602 + Alpelisib (first compound 0.6325 µM). For the same cell line, the relative viability was 0.969 in the assay with Kobe2602 + Alpelisib (first compound 2 µM); 1.08 in the assay with Kobe2602 + Alpelisib (first compound 6.325 µM); 1.09 with Kobe2602 + Alpelisib (first compound 20 µM); 0.761 in assay [1] (first compound 0.02 µM); 0.771 in assay [1] (first compound 0.06325 µM); 0.46 in assay [1] (first compound 0.2 µM). Moreover, the relative viability in assay [1] (first compound 0.6325 µM) was 0.786; in assay [1] (first compound 2 µM), 0.584.

For NCI-H2405, the relative viability with Zosuquidar + Alpelisib (first compound 0.01 µM) is 0.968; with Zosuquidar + Alpelisib (first compound 0.03162 µM), 0.745; with Zosuquidar + Alpelisib (first compound 0.1 µM), 0.605; with Zosuquidar + Alpelisib (first compound 0.3162 µM) it was 0.972; in the assay with Zosuquidar + Alpelisib (first compound 1 µM), 0.837; with Cabozantinib + Alpelisib (first compound 0.06325 µM), 0.858. The relative viability in the assay with Cabozantinib + Alpelisib (first compound 0.2 µM) is 0.838; with Cabozantinib + Alpelisib (first compound 0.6325 µM) it was 0.744; with Cabozantinib + Alpelisib (first compound 2 µM), 0.67; with Kobe2602 + Alpelisib (first compound 0.2 µM), 0.748; with Kobe2602 + Alpelisib (first compound 0.6325 µM), 0.94; with Kobe2602 + Alpelisib (first compound 2 µM) it was 0.721. In addition, the relative viability with Kobe2602 + Alpelisib (first compound 6.325 µM) was found to be 0.896; with Kobe2602 + Alpelisib (first compound 20 µM) it was 0.831; in assay [1] (first compound 0.02 µM) it was 0.933; in assay [1] (first compound 0.06325 µM) it was 0.862; in assay [1] (first compound 0.2 µM) it was 0.872; in assay [1] (first compound 0.6325 µM), 0.873. Moreover, the relative viability in assay [1] (first compound 2 µM) was 0.895.

Take NCI-H3122: the relative viability in the assay with Zosuquidar + Alpelisib (first compound 0.01 µM) came out at 0.714; with Zosuquidar + Alpelisib (first compound 0.03162 µM) it was 0.769; in the assay with Zosuquidar + Alpelisib (first compound 0.1 µM), 0.679; with Zosuquidar + Alpelisib (first compound 0.3162 µM) it was 0.764; in the assay with Zosuquidar + Alpelisib (first compound 1 µM), 0.763; with Cabozantinib + Alpelisib (first compound 0.02 µM), 0.875. Moreover, the relative viability in the assay with Cabozantinib + Alpelisib (first compound 0.06325 µM) turned out to be 0.778; in the assay with Cabozantinib + Alpelisib (first compound 0.2 µM) it was 0.731; with Cabozantinib + Alpelisib (first compound 0.6325 µM), 0.97; with Cabozantinib + Alpelisib (first compound 2 µM), 0.956; with Kobe2602 + Alpelisib (first compound 0.2 µM) it was 0.807; in the assay with Kobe2602 + Alpelisib (first compound 0.6325 µM), 0.753. Moreover, the relative viability with Kobe2602 + Alpelisib (first compound 2 µM) turned out to be 0.764; with Kobe2602 + Alpelisib (first compound 6.325 µM) it was 0.784; in the assay with Kobe2602 + Alpelisib (first compound 20 µM), 0.885; in assay [1] (first compound 0.02 µM) it was 0.272; in assay [1] (first compound 0.06325 µM), 0.301; in assay [1] (first compound 0.2 µM), 0.271. The relative viability in assay [1] (first compound 0.6325 µM) came to 0.297; in assay [1] (first compound 2 µM), 0.309.

In the case of PC-3 [JPC-3], the relative viability with Zosuquidar + Alpelisib (first compound 0.01 µM) was 0.986; in the assay with Zosuquidar + Alpelisib (first compound 0.03162 µM), 1; in the assay with Zosuquidar + Alpelisib (first compound 0.1 µM), 0.91; with Zosuquidar + Alpelisib (first compound 0.3162 µM), 1.03; in the assay with Zosuquidar + Alpelisib (first compound 1 µM) it was 0.994; in the assay with Cabozantinib + Alpelisib (first compound 0.02 µM), 1.02. Besides, the relative viability with Cabozantinib + Alpelisib (first compound 0.06325 µM) was 1.16; in the assay with Cabozantinib + Alpelisib (first compound 0.6325 µM) it was 1.06; in the assay with Cabozantinib + Alpelisib (first compound 2 µM), 1.04; with Kobe2602 + Alpelisib (first compound 0.2 µM) it was 1.05; with Kobe2602 + Alpelisib (first compound 0.6325 µM), 1.04; with Kobe2602 + Alpelisib (first compound 2 µM), 0.971. Moreover, the relative viability amounted to 1.03 in the assay with Kobe2602 + Alpelisib (first compound 6.325 µM); 1.02 with Kobe2602 + Alpelisib (first compound 20 µM); 1.07 in assay [1] (first compound 0.02 µM); 1.1 in assay [1] (first compound 0.06325 µM); 0.919 in assay [1] (first compound 0.6325 µM); 0.967 in assay [1] (first compound 2 µM).

Take PC-14: the relative viability in the assay with Zosuquidar + Alpelisib (first compound 0.01 µM) amounted to 0.916; with Zosuquidar + Alpelisib (first compound 0.03162 µM) it was 1.05; with Zosuquidar + Alpelisib (first compound 0.1 µM) it was 0.864; in the assay with Zosuquidar + Alpelisib (first compound 0.3162 µM) it was 0.944; in the assay with Zosuquidar + Alpelisib (first compound 1 µM), 0.923; with Cabozantinib + Alpelisib (first compound 0.02 µM), 1. Also, the relative viability with Cabozantinib + Alpelisib (first compound 0.06325 µM) was determined as 1.03; with Cabozantinib + Alpelisib (first compound 0.6325 µM), 0.901; in the assay with Cabozantinib + Alpelisib (first compound 2 µM) it was 0.868; in the assay with Kobe2602 + Alpelisib (first compound 0.2 µM), 0.822; in the assay with Kobe2602 + Alpelisib (first compound 0.6325 µM), 0.948; in the assay with Kobe2602 + Alpelisib (first compound 2 µM) it was 0.863. The relative viability in the assay with Kobe2602 + Alpelisib (first compound 6.325 µM) was 0.962; in the assay with Kobe2602 + Alpelisib (first compound 20 µM), 0.989; in assay [1] (first compound 0.02 µM), 0.983; in assay [1] (first compound 0.06325 µM) it was 0.911; in assay [1] (first compound 0.6325 µM) it was 0.894; in assay [1] (first compound 2 µM), 0.788.
